Ends that are not written are not given here.
Columns and labels:
CaMKII [1] = biological target: T1, CaMKII (Homo sapiens, UniProt Q9UQM7); conditions: stimulated CaMKII activity; ref Coultrap and Bayer, 2011; cited from earlier work
CaMKII [2] = biological target: T1, CaMKII; experiment: Kinetics of CaMKII inhibition; assay type: biochemical

T1 sequence (Q9UQM7 whole entry): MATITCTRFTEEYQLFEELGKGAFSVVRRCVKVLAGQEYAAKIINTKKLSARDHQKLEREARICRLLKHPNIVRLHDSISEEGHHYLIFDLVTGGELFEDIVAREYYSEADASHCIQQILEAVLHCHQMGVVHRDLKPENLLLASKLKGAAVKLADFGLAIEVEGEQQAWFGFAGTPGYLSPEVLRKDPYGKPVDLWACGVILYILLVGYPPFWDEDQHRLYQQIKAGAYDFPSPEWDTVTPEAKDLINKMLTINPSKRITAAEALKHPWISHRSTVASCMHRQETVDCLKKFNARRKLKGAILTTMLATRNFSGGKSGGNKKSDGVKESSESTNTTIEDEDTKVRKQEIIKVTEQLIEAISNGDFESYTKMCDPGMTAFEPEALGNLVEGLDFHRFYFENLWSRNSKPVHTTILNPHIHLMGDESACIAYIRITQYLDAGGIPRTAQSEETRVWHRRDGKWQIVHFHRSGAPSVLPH

- α-factor compared to the parent compounds (CaMKII [2]; vs CN19 and CN19a2v): minimal effect on the α-factor
- Ki compared to the parent compounds (CaMKII [2]; vs parent compounds CN19 and CN19a2v): dramatically improved
Sequence: KRAPKLGQIGRQKAVDIED [CN19o]
- enhancement of potency (CaMKII [1]): > 250 fold
- enhancement of selectivity (CaMKII [1]): > 250 fold
